# Patent US12599575B2, “Antimicrobial adjuvant containing biphenyl derivative compound as active ingredient, and uses thereof” (KOREA RESEARCH INSTITUTE OF BIOSCIENCE AND BIOTECHNOLOGY, priority 2021, dated 2026)
# “Also recorded” adds a separate entry of the source.
# What was measured:
# [1] = test system: Acinetobacter baumannii strains; experiment: transcriptome analysis (RNA sequencing, DEG, gene ontology); conditions: 1 hour
# Procedure: First, in a LB agar plate, a single colony was inoculated into a 3 ml of a LB broth and incubated overnight under the conditions of 37° C. and 220 rpm for 16 hours. Thereafter, 1% of the culture medium was diluted in a 250 mL Erlenmeyer flask and then incubated to OD=0.5. The culture medium was dispensed at 5 ml each into three 15 ml round culture tubes, treated with PMB at a concentration of 16 μg/ml, PA108 at a concentration of 5 μm, and PMB at a concentration of 16 μg/ml and PA108 at a concentration of 5 μm, respectively, and incubated at 37° C. and 220 rpm for 1 hour. Thereafter, bacteria were washed three times with PBS, centrifuged at 4° C. and 8,000×g for 10 minutes, and stored at −80° C.
# The library for performing RNA sequencing was prepared by extracting total RNA with a TruSeq Stranded Total RNA sample preparation kit including Ribo-Zero H/M/R, and synthesizing 150 bp-sized cDNA. The quality of the synthesized cDNA library was evaluated by Agilent 2100 BioAnalyzer (Agilent, CA, USA), and after amplifying the cluster of a denatured template, paired-end sequencing which sequences both ends of a DNA fragment using Illumina Novaseq 6000 (Illumina, CA, USA) was performed. For transcriptomic data analysis, the read value was filtered, and the filtered read value was mapped to a reference genome using an aligner STAR v.2.4.0b. Thereafter, in order to measure a gene expression amount, gene expression was quantified using a KAPA library quantification kit (Kapa Biosystems, MA, USA) according to the library quantification protocol of the manufacturer.
# In order to identify a differential expression gene (DEG), a gene expression level was measured with Cufflinks v2.1.1 using gene annotation database, and gene expression level count data was produced using HTSeq-count v0.6.1p1. Form the produced data, a TCC R package was used to identify a gene having a q value of less than 0.05 as a differential expression gene.
# For the genes identified as the differential expression gene (DEG), gene ontology (GO) analysis in which genes were classified according to three categories of biological process, molecular function, and cellular component, and information about the function of genes is provided was performed.
# K. pneumoniae SCH777 = experiment: checkerboard assay, MIC and FICI; conditions: for MIC Alone: 18 hours
# Procedure: (§1) It was determined that when the FICI value was 0.5 or less, the effect was synergistic, when the value was 0.5 to 4.0, the effect was indifferent, and when the value was 4 or more, the effect was antagonistic.
# (§2) First, in each LB agar plate in which bacteria (Klebsiella pneumonia SCH530, SCH740, SCH777, Pseudomonas aeruginosa SMC-U9, SMC-U10, SMC-U11) were grown, 3 to 4 colonies were inoculated into 4 to 5 ml of a LB broth and incubated overnight at 220 rpm at 37° C. for 16 hours. The next day, 5 ml of a culture medium diluted to 1/10000 was incubated to OD=0.08-0.1 in a 15 ml round culture tube at 220 rpm at a temperature of 37° C., and was diluted to 1/20 and dispensed at 196 ul in a 96-well plate. PA108 and PMB were dispensed at concentrations of 0 to 80 μM and 0 to 128 μg/Ml, respectively at 2 ul each and mixed in each well, and incubated at 37° C. for 18 hours to measure the OD value using a multifunctional microplate reader.
# R357 strains [2] = experiment: mouse sepsis model caused by R357 infection, survival rate; type: in vivo; conditions: PMB 100 μg/kg + PA108 60 μg/kg intraperitoneally
# Procedure: Specifically, 5×10^7 of R357 strains were intraperitoneally injected into 6 week old C57BL/6 mouses to prepare a sepsis mouse model caused by R357 infection, and PMB at a dose of 100 μg/kg and PA108 at a dose of 60 μg/kg were intraperitoneally injected alone or in combination to measure the survival rate of the mouse.
# K. pneumoniae SCH530 = experiment: checkerboard assay, MIC and FICI; conditions: for MIC Alone: 18 hours
# Procedure: as §1, §2
# [3] = test system: A. baumannii colistin R357; experiment: checkerboard assay, MIC and FICI; conditions: for MIC Alone: 18 hours
# Procedure: First, in a LB agar plate, 3-4 colonies were inoculated into a 4-5 ml of a LB broth and incubated overnight at 37° C. and 220 rpm for 16 hours. Thereafter, 5 ml of a 1/10000 dilution of the culture medium was made and incubated to OD=0.08-0.1 at 37° C. and 220 rpm in a 15 ml round culture tube.
# as §1
# [4] = test system: Acinetobacter baumannii strains; experiment: cytoplasmic membrane potential (DiSC3(5) fluorescence); type: cell-based; conditions: PMB and PA108 in combination
# Procedure: The cell membrane potential was resuspended in 5 mM HEPES (pH 7.0, +5 mM of glucose), DiSC3(5) (3,3′-Dipropylthiadicarbocyanine Iodide) (50 μM, Cat. D306, Invitrogen, Carlsbad, California) which is a pigment sensitive to potential was added, incubation was performed for 30 minutes, and then fluorescence was measured by a multifunctional microplate reader to measure membrane potential.
# P. aeruginosa SMC-U10 = experiment: checkerboard assay, MIC and FICI; conditions: for MIC Alone: 18 hours
# Procedure: as §1, §2
# R357 strains [5] = experiment: bacterial viability test (colony forming unit)
# Procedure: First, in a LB agar plate, a single colony was inoculated into a 3 ml of a LB broth and incubated overnight under the conditions of 37° C. and 220 rpm for 16 hours. Thereafter, 1% of the culture medium was diluted in a 250 ml Erlenmeyer flask and then incubated to OD=0.5.
# K. pneumoniae SCH740 = experiment: checkerboard assay, MIC and FICI; conditions: for MIC Alone: 18 hours
# Procedure: as §1, §2
# [6] = test system: Acinetobacter baumannii strains; experiment: membrane permeability (PI fluorescence); type: cell-based; conditions: PMB 16 μg/ml + PA108 5 μM; 30 minutes
# Procedure: Specifically, for sample preparation, a colony culture grown for 16 hours was washed and resuspended in 0.01 M PBS at pH 7.4. Absorbance at 600 nm in a bacteria suspension was standardized to 0.5 in the same buffer solution, and a pigment PI9 (cat. P1304MP, Thermo Fisher Scientific, Waltham, Massachusetts, USA) was added at a final concentration of 1.67 μM. After incubation at 37° C. for 30 minutes, 198 μl of fluorescently labeled bacteria cells were added to a 96-well plate, and 16 μg/ml of PMB and 2 μl of 5 μM PA108 were added. After incubation for 30 minutes again, fluorescence was measured in a fluorescence measurement wavelength range of excitation of 535 nm and emission of 615 nm by a multifunctional microplate reader to measure membrane permeability.
# P. aeruginosa SMC-U9 = experiment: checkerboard assay, MIC and FICI; conditions: for MIC Alone: 18 hours
# Procedure: as §1, §2
# P. aeruginosa SMC-U11 = experiment: checkerboard assay, MIC and FICI; conditions: for MIC Alone: 18 hours
# Procedure: as §1, §2
# [7] = test system: Acinetobacter baumannii strains (R357); experiment: bacterial morphological change (fluorescence microscope, scanning electron microscope); conditions: 9 hours
# Procedure: First, in a LB agar plate, a single colony was inoculated into 3 ml of a LB broth and incubated overnight at 37° C. and 220 rpm for 16 hours. Thereafter, 1% of the culture medium was diluted in a 250 ml of Erlenmeyer flask and incubated to OD=0.5, treated with PMB and PA108 at concentrations of 16 μg/ml and 5 μM, respectively, and incubated for 9 hours. The cells were centrifuged at 4° C. for 10 minutes at 8,000×g, washed three times, and resuspended in PBS. 3 ml of the cell suspension was fixed and then observed with a scanning electron microscope. A LIVE/DEAD BacLight bacterial viability kit (Cat #. L7007, Invitrogen, Waltham, Massachusetts, USA) was used to add SYTO9 (67 mM, 3 μL) which bound to DNA and RNA of living cells to emit green fluorescence and Propidium iodide (PI) (1.67 mM, 3 μL) which bound to DNA and RNA of dead cells to emit red fluorescence to add each sample at a final volume of 3 ml, and the samples were incubated in a dark room at room temperature for 15 hours and observed with a fluorescence microscope.
# [8] = test system: human body-derived renal cells ACHN; experiment: nephrotoxicity, renal cell viability (cell titer glo); type: cell-based
# Procedure: First, ACHN renal cells were incubated with 2×10^4 cells/well for 24 hours, and the medium was changed to a medium in which PMB or PA108 was mixed in all wells. After 0, 24, 48, 72, and 96 hours of the treatment with PMB or PA108, cell viability was measured as ratios of the amounts of ATP at each time to 0 hour through cell titer glo to evaluate cytotoxicity.
# [9] = PMB 16 μg/ml + PA108 5 μM, gene ontology analysis
# [10] = in combination with polymyxin B
# [11] = A. baumannii colistin R357, PA108 + polymyxin B
compound,measurement,setting,value
Cc1cc([N+](=O)[O-])cc(-c2ccc(Cl)cc2)c1O [PA108],"gene change compared with control group, PA108 single treatment",[1]; PA108 5 μM,significant gene change was observed
same,"gene change compared with control group, simultaneous treatment",[1]; PMB 16 μg/ml + PA108 5 μM,significant gene change was observed
same,"expression of genes involved in transport of substances through a cell membrane, ATPase-coupled sulfate transmembrane transporter activity",[1]; [9],significantly increased
same,"expression of genes involved in zinc ion binding, identical protein binding, ferric ion binding and peroxidase activity",[1]; [9],significantly decreased
same,FIC,K. pneumoniae SCH777,0.03125
same,MIC Alone,K. pneumoniae SCH777,160 µM
same,Interpretation,K. pneumoniae SCH777; PA108 + polymyxin B,Synergy
same,MIC Combi,K. pneumoniae SCH777; [10],5 µM
same,"survival time, simultaneous treatment","R357 strains [2]; C57BL/6 mouse, R357 i.p.",≥ 168 h
same,"R357 strains in organs at autopsy, simultaneous treatment",R357 strains [2],R357 strains were not detected in organs
same,"pathological symptoms, simultaneous treatment",R357 strains [2]; until 168 hours,without showing any pathological symptoms
same,FIC,K. pneumoniae SCH530,0.03125
same,MIC Alone,K. pneumoniae SCH530,160 µM
same,Interpretation,K. pneumoniae SCH530; PA108 + polymyxin B,Synergy
same,MIC Combi,K. pneumoniae SCH530; [10],5 µM
same,FIC,[3]; A. baumannii colistin R357,0.03125
same,MIC Alone,[3]; A. baumannii colistin R357,160 µM
same,FICI,[3]; [11],0.06225
same,Interpretation,[3]; [11],synergistic effect; also recorded: Synergy
same,MIC Combi,"[3]; A. baumannii colistin R357, in combination with PB",5 µM
same,bacterial cytoplasmic membrane potential,[4],changed the bacterial cytoplasmic membrane potential
same,FIC,P. aeruginosa SMC-U10,0.0625
same,MIC Alone,P. aeruginosa SMC-U10,160 µM
same,Interpretation,P. aeruginosa SMC-U10; PA108 + polymyxin B,Synergy
same,MIC Combi,P. aeruginosa SMC-U10; [10],10 µM
same,"effect of killing (CFU), PA108 single treatment",R357 strains [5]; PA108 5 μM,did not show the effect of killing
same,"cell death (CFU), simultaneous treatment",R357 strains [5]; PMB 16 μg/mL + PA108 5 μM,cell death was derived
same,bacterial killing effect,"R357 strains [5]; PMB 16 μg/mL + PA108 5 μM, final",100%
same,FIC,K. pneumoniae SCH740,0.03125
same,MIC Alone,K. pneumoniae SCH740,160 µM
same,Interpretation,K. pneumoniae SCH740; PA108 + polymyxin B,Synergy
same,MIC Combi,K. pneumoniae SCH740; [10],5 µM
same,overall membrane permeability,[6],did not affect the overall membrane permeability
same,FIC,P. aeruginosa SMC-U9,0.0625
same,MIC Alone,P. aeruginosa SMC-U9,160 µM
same,Interpretation,P. aeruginosa SMC-U9; PA108 + polymyxin B,Synergy
same,MIC Combi,P. aeruginosa SMC-U9; [10],10 µM
same,FIC,P. aeruginosa SMC-U11,0.0625
same,MIC Alone,P. aeruginosa SMC-U11,160 µM
same,Interpretation,P. aeruginosa SMC-U11; PA108 + polymyxin B,Synergy
same,MIC Combi,P. aeruginosa SMC-U11; [10],10 µM
same,"cell death by LIVE/DEAD fluorescence, PA108 single treatment",[7]; PA108 5 μM,the cells did not die
same,"cell morphology by scanning electron microscope, PA108 single treatment",[7]; PA108 5 μM,intact form in which the surface of cells was not damaged
same,"cell death by LIVE/DEAD fluorescence, simultaneous treatment",[7]; PMB 16 μg/ml + PA108 5 μM,cell death was derived
same,"cell morphology by scanning electron microscope, simultaneous treatment",[7]; PMB 16 μg/ml + PA108 5 μM,cells shrunk and an intracellular substance was leaked
same,nephrotoxicity at working concentration,[8]; 5 μM,nephrotoxicity was not shown at all
same,renal cell viability,[8]; concentration higher than 5 μM,≥ 80%
"polymyxin B [PMB, reference compound]","gene change compared with control group, PMB single treatment",[1]; PMB 16 μg/ml,significant gene change was observed
same,FIC,K. pneumoniae SCH777,0.00391
same,MIC Alone,K. pneumoniae SCH777,128 µg/mL
same,MIC Combi,K. pneumoniae SCH777; in combination with PA108,0.5 µg/mL
same,FIC,K. pneumoniae SCH530,0.0623
same,MIC Alone,K. pneumoniae SCH530,8 µg/mL
same,MIC Combi,K. pneumoniae SCH530; in combination with PA108,0.5 µg/mL
same,FIC,[3]; A. baumannii colistin R357,0.031
same,MIC Alone,[3]; A. baumannii colistin R357,54 µg/mL
same,MIC Combi,"[3]; A. baumannii colistin R357, in combination with PA108",2 µg/mL
same,minimal inhibitory concentration (MIC),"[3]; R357 strains, polymyxin alone",64 µg/mL
same,FIC,P. aeruginosa SMC-U10,0.125
same,MIC Alone,P. aeruginosa SMC-U10,16 µg/mL
same,MIC Combi,P. aeruginosa SMC-U10; in combination with PA108,2 µg/mL
same,"effect of killing (CFU), PMB single treatment",R357 strains [5]; PMB 16 μg/mL,did not show the effect of killing
same,FIC,K. pneumoniae SCH740,0.00781
same,MIC Alone,K. pneumoniae SCH740,128 µg/mL
same,MIC Combi,K. pneumoniae SCH740; in combination with PA108,1 µg/mL
same,FIC,P. aeruginosa SMC-U9,0.25
same,MIC Alone,P. aeruginosa SMC-U9,16 µg/mL
same,MIC Combi,P. aeruginosa SMC-U9; in combination with PA108,4 µg/mL
same,FIC,P. aeruginosa SMC-U11,0.0625
same,MIC Alone,P. aeruginosa SMC-U11,32 µg/mL
same,MIC Combi,P. aeruginosa SMC-U11; in combination with PA108,2 µg/mL
same,"cell death by LIVE/DEAD fluorescence, PMB single treatment",[7]; PMB 16 μg/ml,the cells did not die
same,"cell morphology by scanning electron microscope, PMB single treatment",[7]; PMB 16 μg/ml,intact form in which the surface of cells was not damaged
same,concentration from which viability of renal cells decreased,[8]; up to 96 hours,≥ 50 µg/mL
